Laboratory results from patent US9546144B2, “Bifunctional compounds” (University of Pittsburgh—of the Commonwealth System of …, priority 2011, dated 2017).

Key:
[1] = tested on: fibrosis associated gene transcripts in lung; assay: RT-PCR of gene transcripts in lungs of 20 Gy thoracic irradiated mice; type: in vivo, mouse; settings: 100 μM in drinking water continuously from day 80 after 20 Gy
Method: FIGS. 20A-20D. MMS350 decreases levels of irradiation induced endothelial and alveolar cell specific RNA levels. Endothelial and alveolar cells were isolated from the lungs of irradiated control or MMS350 treated mice at days 0, 29, 150, and 200 after 20 Gy thoracic irradiation. […] RNA was isolated and RT-PCR was performed for gene expression for: FIG. 20A oxidative stress induced promoters; FIG. 20B endothelial and alveolar cell markers; FIG. 20C fibrosis associated genes; and FIG. 20D endothelial cell markers. […]
FIGS. 21A-21C. […] Expression of BD1, BD2, BD3, and BRDT was determined.
Measurement of Levels of Gene Transcripts for Irradiation Inducible Promoters, Growth Factors, Inflammatory Cytokines, Adhesion Molecules microRNA, and Bromodomain Epigenetic Reader Proteins by RT-PCR
RNA was extracted from mouse lung or purified cell populations using the TRIzol reagent (Invitrogen, Carlsbad, Calif.) following the manufacturer's instructions, quantified using a spectrophotometer, and stored at −80° C. […]
Data for each gene were normalized by calculating the differences (ΔCt) from the Ct-GUSB and Ct-Target genes. Subsequently, the relative increase or decrease in expression was calculated by comparing the reference gene with the target gene (ΔΔCt) and using the formula for relative expression (=2^ΔΔCt). […]

[2] = tested on: C57BL/6NTac mice; assay: radiation pulmonary fibrosis and survival after 20 Gy thoracic irradiation; type: in vivo, mouse; settings: in drinking water
Source text: FIG. 23. MMS350 in drinking water decreases fibrosis in the lungs of thoracic irradiated (20 Gy) mice.
For lung irradiation, mice were irradiated to the thoracic cavity with shielding of the head and neck region and abdomen and lower body according to published methods. Animals received 20 Gy single fraction thoracic irradiation and were then maintained according to IACUC directed laboratory conditions. Mice were sacrificed at serial time points after thoracic irradiation including pre-irradiation, days 2, 7, 14, 28, 50, 75, 100, 110, 150 and 200 post-irradiation. Lungs were removed and sagittal sections assayed for percent of lung replaced by fibroblasts and organizing alveolitis according to published methods.
Lungs from irradiated and luc+ cell line injected mice were removed and serial sectioned. Sections were stained for luc+, GFP+ cells, BrdU incorporation, and for quantitation of percent lung replaced by fibrosis (organizing alveolitis) according to published methods.
Mice were injected intra-peritoneally with MMS350 or JP4-039 (GS-nitroxide) in 50% cremphor/50% ethanol according to published methods. For long-term administration of MMS350, the drug was administered in water bottles with bottles changed every 7 days. The dose of drug per bottle was 100 μM MMS350 starting on day 88. […]

CC1(C[S+]([O-])CC2(C)COC2)COC1 [compound 3, 3,3′-Sulfinylbis(methylene)bis(3-methyloxetane)]
fibrosis phase mRNA expression [1]: decreased expression of fibrosis phase mRNA expression | survival of thoracic irradiated mice [2]: significantly increased survival
